Experimental data reported in patent publication US9340577B2, “HLA binding motifs and peptides and their uses” (priority 1992, dated 2016).
No end group written: not given here.

Assays:
Assay in all cases: biochemical
[1] = target: DR1 (DRB1*0101) (Homo sapiens, UniProt P01903+P01911, A100R/D57E/F55L/F60I/F76Y/I96L/L162R/M171V/P40L/Q125E/R42F/V115G/Y59C); type: binding
[2] = target: DRB1*0301 (Homo sapiens, UniProt P01903+P01911, A100K/A102G/A103R/A169T/F55Y/I96L/K41T/L162R/M171V/P40S/Q125H/Q178H/Q39Y/R42S/S66N/T106N/T262R/W38E/Y61H); type: binding
[3] = target: DRB1*0405 (Homo sapiens, UniProt P01903+P01911, A100R/A169T/D86S/F76Y/I96L/K127E/L162R/M171V/N62H/P40V/Q125Y/R42H/S133A/S149N/S66Y/V115G/V209L/W38E); type: binding
[4] = target: DRB1*0802 (Homo sapiens, UniProt P01903+P01911, A100R/A103L/A169T/F76Y/H45Y/I96F/K41T/L162R/M171V/P40S/Q125H/Q178H/Q39Y/Q99D/R218S/R42G/S66Y/V115G/W38E); type: binding
[5] = target: DRB1*0901 (Homo sapiens, UniProt P01903+P01911, A100R/A103E/D57H/D86V/F55Y/F60I/F76Y/I96F/K127E/L162R/M171V/P40D/Q125H/Q99R/R33Q/R42F/S133A/S66N/T210M/V115G/W38K/Y107V/Y59G/Y89S); type: binding
[6] = target: DRB1*1302 (Homo sapiens, UniProt P01903+P01911, A100E/A169T/K41T/L162R/M171V/P40S/Q125H/Q178H/Q39Y/Q99D/R42S/S66N/T262R/V115G/W38E/Y61H); type: binding
[7] = target: DRB1*1501 (Homo sapiens, UniProt P01903+P01911); type: binding
[8] = target: DRB3*0101 (Homo sapiens, UniProt P01903+P79483); type: binding
[9] = target: DRB4*0101 (Homo sapiens, UniProt P01903+P13762, G164S); type: binding
[10] = target: DRB1*1101 (Homo sapiens, UniProt P01903+P01911, A100R/A169T/A87E/I96F/K41T/L162R/M171V/P40S/Q125H/Q178H/Q39Y/Q99D/R42S/S66Y/T262R/V115G/W38E); details: Binding affinity DRB1 *1101
[11] = target: DRB5*0101 (Homo sapiens, UniProt P01903+Q30154); details: Binding affinity DRB5 *0101
[12] = target: DR4w4 (DRB1*0401) (Homo sapiens, UniProt P01903+P01911, A100K/A169T/F76Y/I96L/K127E/L162R/M171V/N62H/P40V/Q125Y/R42H/S133A/S149N/S66Y/V115G/V209L/W38E); type: binding
[13] = target: DR7 (DRB1*0701) (Homo sapiens, UniProt P01903+P01911, A100R/A102G/A103Q/D57E/D86V/E43K/F76Y/K127E/L162R/M171V/P40G/Q125H/Q99D/R33Q/R42Y/R54Q/S133A/S66F/T210M/V115G/Y107V/Y59L/Y89S); type: binding

Sequence of DRB1*0301 (P01903 26-254 limits assumed, other chains not shown): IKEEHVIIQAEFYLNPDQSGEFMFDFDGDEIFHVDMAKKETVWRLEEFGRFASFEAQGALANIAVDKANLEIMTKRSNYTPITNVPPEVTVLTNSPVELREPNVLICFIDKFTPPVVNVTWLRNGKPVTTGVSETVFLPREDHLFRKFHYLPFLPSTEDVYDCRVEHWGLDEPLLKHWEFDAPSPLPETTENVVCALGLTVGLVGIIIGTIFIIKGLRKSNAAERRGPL
Sequence of DRB1*1302 (P01903 26-254 limits assumed, other chains not shown): as above
Sequence of DRB1*1101 (P01903 26-254 limits assumed, other chains not shown): as above

Molecule: CC[C@H](C)[C@H](NC(=O)[C@@H](NC(=O)[C@@H]1CCCN1C(=O)[C@@H](NC(=O)[C@@H](NC(=O)[C@H](CC(N)=O)NC(=O)CNC(=O)[C@H](CO)NC(=O)[C@H](CS)NC(=O)[C@@H](NC(=O)[C@H](CCCCN)NC(=O)[C@@H](N)CCCNC(=N)N)C(C)C)[C@@H](C)O)[C@@H](C)O)[C@@H](C)CC)C(=O)N[C@@H](Cc1c[nH]cn1)C(=O)N[C@@H](CC(C)C)C(=O)N[C@@H](CCCCN)C(=O)O [Peptide 1601.43]
- IC50 [1]: 1.31 µM
- IC50 [2]: > 20 µM
- IC50 [3]: 9.21 µM
- IC50 [4]: 8.06 µM
- IC50 [5]: 1.12 µM
- IC50 [6]: 0.011 µM
- IC50 [7]: 8.05 µM
- IC50 [8]: > 20 µM
- IC50 [9]: 2.1 µM
- IC50 [10]: > 20 µM
- IC50 [11]: 18 µM

Molecule: SDEISFAGIVTKLPT [Peptide 1601.45]
- IC50 [1]: 0.513 µM
- IC50 [12]: 8.79 µM
- IC50 [13]: 0.901 µM
- IC50 [2]: 1.66 µM
- IC50 [3]: 2.35 µM
- IC50 [4]: 10.7 µM
- IC50 [5]: 1.28 µM
- IC50 [7]: 0.791 µM
- IC50 [8]: > 20 µM
- IC50 [10]: 12.2 µM

Molecule: RNTFLDVVTIPNSVQ [Peptide 1601.39]
- IC50 [1]: 0.555 µM
- IC50 [13]: 0.27 µM
- IC50 [2]: 6.86 µM
- IC50 [3]: 0.326 µM
- IC50 [4]: 0.776 µM
- IC50 [5]: 5.87 µM
- IC50 [7]: 17 µM
- IC50 [8]: 12 µM
- IC50 [10]: 0.371 µM
- IC50 [11]: > 20 µM

Molecule: FLDVVTIPNSVQISV [Peptide 1601.40]
- IC50 [1]: 0.551 µM
- IC50 [12]: 0.017 µM
- IC50 [13]: 0.492 µM
- IC50 [2]: 8.36 µM
- IC50 [3]: 1.78 µM
- IC50 [4]: 14.7 µM
- IC50 [5]: 9.35 µM
- IC50 [6]: 0.053 µM
- IC50 [8]: 17.6 µM
- IC50 [9]: 2.21 µM
- IC50 [10]: 2.2 µM
- IC50 [11]: > 20 µM

Molecule: TYISTSQRDDFLNTV [Peptide 1601.27]
- IC50 [1]: > 20 µM
- IC50 [12]: 16.3 µM
- IC50 [2]: 0.152 µM
- IC50 [3]: 5.2 µM
- IC50 [4]: > 20 µM
- IC50 [5]: 13 µM
- IC50 [7]: > 20 µM
- IC50 [8]: 6.62 µM
- IC50 [9]: 0.48 µM
- IC50 [10]: > 20 µM
- IC50 [11]: > 20 µM

Molecule: NCNSNTTPIVHLKGD [Peptide 1601.08]
- IC50 [1]: 11.5 µM
- IC50 [12]: 3.11 µM
- IC50 [2]: > 20 µM
- IC50 [3]: > 20 µM
- IC50 [4]: > 20 µM
- IC50 [5]: 3.14 µM
- IC50 [7]: > 20 µM
- IC50 [8]: > 20 µM
- IC50 [9]: 2.64 µM
- IC50 [10]: > 20 µM
- IC50 [11]: > 20 µM

Molecule: CC[C@H](C)[C@H](NC(=O)CNC(=O)[C@@H](NC(=O)[C@H](CCCCN)NC(=O)[C@H](CCC(=O)O)NC(=O)[C@H](CC(N)=O)NC(=O)CNC(=O)[C@H](C)N)[C@@H](C)O)C(=O)N[C@@H](CC(C)C)C(=O)N[C@H](C(=O)N[C@H](C(=O)N[C@H](C(=O)N[C@@H](Cc1ccc(O)cc1)C(=O)N[C@@H](Cc1c[nH]cn1)C(=O)N[C@@H](CO)C(=O)O)[C@@H](C)O)C(C)C)[C@@H](C)O [Peptide 1601.18]
- IC50 [1]: > 20 µM
- IC50 [12]: 3.99 µM
- IC50 [2]: > 20 µM
- IC50 [3]: 6.75 µM
- IC50 [4]: > 20 µM
- IC50 [5]: > 20 µM
- IC50 [6]: > 20 µM
- IC50 [7]: 2.81 µM
- IC50 [8]: > 20 µM
- IC50 [9]: 0.932 µM
- IC50 [10]: > 20 µM
- IC50 [11]: > 20 µM

Molecule: SNEVSSPEIIRQHLA [Peptide 1601.06]
- IC50 [1]: > 20 µM
- IC50 [12]: > 20 µM
- IC50 [13]: 8.61 µM
- IC50 [2]: 4.79 µM
- IC50 [3]: > 20 µM
- IC50 [4]: > 20 µM
- IC50 [7]: 5.36 µM
- IC50 [8]: > 20 µM
- IC50 [9]: 0.013 µM
- IC50 [10]: > 20 µM
- IC50 [11]: > 20 µM

Molecule: DICNTMHYTNWTHIY [Peptide 1601.04]
- IC50 [1]: 8.96 µM
- IC50 [12]: 0.883 µM
- IC50 [13]: 0.412 µM
- IC50 [2]: 14.8 µM
- IC50 [3]: 2.82 µM
- IC50 [5]: 4.85 µM
- IC50 [6]: 1.04 µM
- IC50 [8]: 7.2 µM
- IC50 [9]: 6.05 µM
- IC50 [10]: > 20 µM
- IC50 [11]: > 20 µM

Molecule: CC(C)[C@H](NC(=O)[C@H](CCC(=O)O)NC(=O)[C@H](Cc1c[nH]c2ccccc12)NC(=O)[C@@H](NC(=O)CNC(=O)[C@@H](NC(=O)[C@H](CC(N)=O)NC(=O)CNC(=O)[C@H](Cc1ccc(O)cc1)NC(=O)[C@H](CCCCN)NC(=O)[C@@H](N)CCC(=O)O)[C@@H](C)O)[C@@H](C)O)C(=O)N[C@@H](Cc1c[nH]cn1)C(=O)N[C@@H](Cc1ccccc1)C(=O)NCC(=O)N[C@@H](CC(N)=O)C(=O)O [Peptide 1601.11]
- IC50 [1]: 0.505 µM
- IC50 [13]: 0.091 µM
- IC50 [2]: > 20 µM
- IC50 [3]: 14.7 µM
- IC50 [4]: > 20 µM
- IC50 [5]: 2.49 µM
- IC50 [6]: > 20 µM
- IC50 [7]: > 20 µM
- IC50 [8]: > 20 µM
- IC50 [9]: > 20 µM
- IC50 [10]: > 20 µM
- IC50 [11]: > 20 µM

Molecule: QMMLETLNNTEYKNE [Peptide 1601.22]
- IC50 [1]: > 20 µM
- IC50 [13]: > 20 µM
- IC50 [2]: 9.64 µM
- IC50 [3]: 0.063 µM
- IC50 [4]: > 20 µM
- IC50 [5]: > 20 µM
- IC50 [6]: 14.7 µM
- IC50 [7]: > 20 µM
- IC50 [8]: > 20 µM
- IC50 [9]: 0.555 µM
- IC50 [10]: > 20 µM
- IC50 [11]: > 20 µM

Molecule: DFLNTVKIPNTVSVS [Peptide 1601.28]
- IC50 [1]: 0.777 µM
- IC50 [12]: 0.5 µM
- IC50 [13]: 0.469 µM
- IC50 [2]: > 20 µM
- IC50 [3]: 11.8 µM
- IC50 [4]: 2.09 µM
- IC50 [5]: 0.373 µM
- IC50 [6]: 0.131 µM
- IC50 [7]: 2.19 µM
- IC50 [8]: > 20 µM
- IC50 [10]: 0.277 µM
- IC50 [11]: > 20 µM

Molecule: PTGCLKKHGYTVEVQ [Peptide 1601.23]
- IC50 [1]: 17.9 µM
- IC50 [12]: 19.8 µM
- IC50 [13]: 2.27 µM
- IC50 [2]: > 20 µM
- IC50 [3]: > 20 µM
- IC50 [4]: > 20 µM
- IC50 [5]: 1.74 µM
- IC50 [6]: 0.082 µM
- IC50 [8]: > 20 µM
- IC50 [9]: 7.47 µM
- IC50 [10]: > 20 µM
- IC50 [11]: > 20 µM

Molecule: CSCC[C@H](NC(=O)[C@H](CS)NC(=O)[C@H](CC(N)=O)NC(=O)[C@H](CC(=O)O)NC(=O)[C@H](CCCCN)NC(=O)[C@H](CC(N)=O)NC(=O)CN)C(=O)N[C@H](C(=O)N[C@@H](Cc1ccc(O)cc1)C(=O)N[C@H](C(=O)N[C@@H](C)C(=O)N[C@@H](Cc1c[nH]c2ccccc12)C(=O)N[C@@H](CC(=O)O)C(=O)N[C@@H](CO)C(=O)N[C@H](C(=O)O)C(C)C)C(C)C)[C@@H](C)O [Peptide 1601.09]
- IC50 [1]: 2.23 µM
- IC50 [12]: 2.26 µM
- IC50 [13]: 4.39 µM
- IC50 [2]: 8.83 µM
- IC50 [4]: 11.5 µM
- IC50 [5]: > 20 µM
- IC50 [6]: > 20 µM
- IC50 [7]: 0.461 µM
- IC50 [8]: > 20 µM
- IC50 [9]: 0.041 µM
- IC50 [10]: > 20 µM
- IC50 [11]: > 20 µM

Molecule: STSDDTVSATQIVRQ [Peptide 1601.31]
- IC50 [1]: 18.1 µM
- IC50 [12]: 0.558 µM
- IC50 [13]: 5.21 µM
- IC50 [2]: 3.74 µM
- IC50 [3]: > 20 µM
- IC50 [4]: > 20 µM
- IC50 [5]: > 20 µM
- IC50 [6]: > 20 µM
- IC50 [7]: > 20 µM
- IC50 [8]: > 20 µM
- IC50 [10]: > 20 µM
- IC50 [11]: > 20 µM

Molecule: YENDSTDLRDHIDYW [Peptide 1601.01]
- IC50 [1]: > 20 µM
- IC50 [12]: > 20 µM
- IC50 [13]: > 20 µM
- IC50 [2]: 15.8 µM
- IC50 [3]: > 20 µM
- IC50 [4]: > 20 µM
- IC50 [5]: > 20 µM
- IC50 [6]: > 20 µM
- IC50 [7]: > 20 µM
- IC50 [8]: 8.55 µM
- IC50 [10]: > 20 µM
- IC50 [11]: > 20 µM
